In PubChem BioAssay AID248 (DTP/NCI, 2004):
Inconclusive results and toxic doses are left out. Square brackets hold non-standard residues; d marks the D form. Peptide text beside a SMILES is read from it. * marks the point of attachment. Cbz = O=C(OCc1ccccc1)*; OBn = c1ccc(CO*)cc1; Sar = CNCC(=O)O

Test system: L1210 leukemia ip in BDF1 mice, survival T/C
Test: NCI In Vivo Anticancer Drug Screen. Data for tumor model L1210 Leukemia (intraperitoneal) in B6D2F1 (BDF1) mice
Conditions: higher = longer survival
In short: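 Tumor cells were implanted, animals were treated, and survival was followed. The result divides the treated measurement by the vehicle-control measurement.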

[1] = endpoint: mean survival time, dose: 100.0 mg/kg/injection, schedule: Q04DX003 (ip), vehicle: saline with Tween-80
[2] = endpoint: mean survival time, dose: 200.0 mg/kg/injection, schedule: Q04DX003 (ip), vehicle: saline with Tween-80
[3] = endpoint: mean survival time, dose: 400.0 mg/kg/injection, schedule: Q04DX003 (ip), vehicle: saline with Tween-80

**Q.** Which results are given for `CC[n+]1ccc(Nc2ccc(NC(=O)c3ccc(Nc4cc[n+](CC)c5ccc([N+](=O)[O-])cc45)cc3)cc2)cc1`?
**A.** T/C (endpoint: mean survival time, dose: 4.13 mg/kg/injection, schedule: Q04DX003 (ip), vehicle: saline sonified): 114 % of control; T/C (endpoint: mean survival time, dose: 4.5 mg/kg/injection, schedule: Q01DX009 (ip), vehicle: Klucel (hydroxypropylcellulose) (HPC)): 117 % of control; T/C (endpoint: mean survival time, dose: 6.25 mg/kg/injection, schedule: Q04DX003 (ip), vehicle: Klucel (hydroxypropylcellulose) (HPC)): 108 % of control; T/C (endpoint: mean survival time, dose: 6.25 mg/kg/injection, schedule: Q04DX003 (ip), vehicle: saline sonified): 117 % of control; T/C (endpoint: mean survival time, dose: 9.38 mg/kg/injection, schedule: Q04DX003 (ip), vehicle: saline sonified): 115 % of control; T/C (endpoint: mean survival time, dose: 10.44 mg/kg/injection, schedule: Q01DX009 (ip), vehicle: saline with Tween-80): 117 % of control; T/C (endpoint: mean survival time, dose: 11.0 mg/kg/injection, schedule: Q01DX009 (ip), vehicle: saline): 115 % of control; T/C (endpoint: mean survival time, dose: 12.5 mg/kg/injection, schedule: Q01DX001 (ip), vehicle: Klucel (hydroxypropylcellulose) (HPC)): 100 % of control; T/C (endpoint: mean survival time, dose: 12.5 mg/kg/injection, schedule: Q04DX003 (ip), vehicle: Klucel (hydroxypropylcellulose) (HPC)): 112 % of control; T/C (endpoint: mean survival time, dose: 16.5 mg/kg/injection, schedule: Q01DX009 (ip), vehicle: Klucel (hydroxypropylcellulose) (HPC)): 175 % of control; T/C (endpoint: mean survival time, dose: 25.0 mg/kg/injection, schedule: Q01DX001 (ip), vehicle: Klucel (hydroxypropylcellulose) (HPC)): 102 % of control; T/C (endpoint: mean survival time, dose: 25.0 mg/kg/injection, schedule: Q01DX009 (ip), vehicle: Klucel (hydroxypropylcellulose) (HPC)): 160 % of control; T/C (endpoint: mean survival time, dose: 25.0 mg/kg/injection, schedule: Q01DX009 (ip), vehicle: saline sonified): 230 % of control; T/C (endpoint: mean survival time, dose: 25.0 mg/kg/injection, schedule: Q01DX009 (ip), vehicle: saline): 160 % of control; T/C (endpoint: mean survival time, dose: 25.0 mg/kg/injection, schedule: Q04DX003 (ip), vehicle: Klucel (hydroxypropylcellulose) (HPC)): 122 % of control; T/C (endpoint: mean survival time, dose: 37.5 mg/kg/injection, schedule: Q01DX009 (ip), vehicle: saline): 184 % of control

**Q.** Which results are given for `CC[N+]1(C)CCC(CN2c3ccccc3Sc3ccccc32)C1` (stereo not drawn)?
**A.** T/C [1]: 100 % of control; T/C [2]: 103 % of control; T/C [3]: 100 % of control

**Q.** How did the T/C (endpoint: mean survival time, dose: 2.5 mg/kg/injection, schedule: Q01DX009 (ip), vehicle: other) turn out when `Nc1ccn(C2OC(COP(=O)(O)O)C(O)C2O)c(=O)n1` (stereo not drawn) was run?
**A.** 108 % of control

**Q.** What about the T/C (endpoint: mean survival time, dose: 5.0 mg/kg/injection, schedule: Q01DX009 (ip), vehicle: other) of the same molecule?
**A.** 96 % of control

**Q.** And the T/C (endpoint: mean survival time, dose: 10.0 mg/kg/injection, schedule: Q01DX009 (ip), vehicle: other)?
**A.** 116 % of control

**Q.** What about the T/C (endpoint: mean survival time, dose: 18.0 mg/kg/injection, schedule: Q01DX Z (ip), vehicle: saline) of the same molecule?
**A.** 193 % of control

**Q.** What about the T/C (endpoint: mean survival time, dose: 26.5 mg/kg/injection, schedule: Q01DX Z (ip), vehicle: saline) of the same molecule?
**A.** 195 % of control

**Q.** And the T/C (endpoint: mean survival time, dose: 40.0 mg/kg/injection, schedule: Q01DX Z (ip), vehicle: saline)?
**A.** 218 % of control

**Q.** And the T/C (endpoint: mean survival time, dose: 60.0 mg/kg/injection, schedule: Q01DX Z (ip), vehicle: saline)?
**A.** 157 % of control

**Q.** What about the T/C (endpoint: median survival time, dose: 22.0 mg/kg/injection, schedule: Q01DX009 (ip), vehicle: sodium bicarbonate) of the same molecule?
**A.** 171 % of control

**Q.** And the T/C (endpoint: median survival time, dose: 33.0 mg/kg/injection, schedule: Q01DX009 (ip), vehicle: sodium bicarbonate)?
**A.** 177 % of control

**Q.** And the T/C (endpoint: median survival time, dose: 46.0 mg/kg/injection, schedule: Q01DX009 (ip), vehicle: sodium bicarbonate)?
**A.** 177 % of control

**Q.** What about the T/C (endpoint: median survival time, dose: 66.0 mg/kg/injection, schedule: Q01DX009 (ip), vehicle: sodium bicarbonate) of the same molecule?
**A.** 181 % of control

**Q.** Which T/C (endpoint: mean survival time, dose: 222.0 mg/kg/injection, schedule: Q01DX Z (ip), vehicle: saline) does the source give for `CC(=O)OC(OC(C)=O)c1cccc2ccccc12` here?
**A.** 91 % of control

**Q.** What about the T/C (endpoint: mean survival time, dose: 333.0 mg/kg/injection, schedule: Q01DX Z (ip), vehicle: saline) of the same molecule?
**A.** 98 % of control

**Q.** What about the T/C (endpoint: mean survival time, dose: 500.0 mg/kg/injection, schedule: Q01DX Z (ip), vehicle: saline) of the same molecule?
**A.** 109 % of control

**Q.** Which results are given for `C[CH2][Ge]([CH2]C)([CH2]C)[CH2]CCO`?
**A.** T/C (endpoint: mean survival time, dose: 5.0 mg/kg/injection, schedule: Q04DX002 (ip), vehicle: saline with Tween-80): 103 % of control; T/C (endpoint: mean survival time, dose: 10.0 mg/kg/injection, schedule: Q04DX002 (ip), vehicle: saline with Tween-80): 97 % of control; T/C (endpoint: mean survival time, dose: 20.0 mg/kg/injection, schedule: Q04DX002 (ip), vehicle: saline with Tween-80): 95 % of control; T/C (endpoint: mean survival time, dose: 100.0 mg/kg/injection, schedule: Q04DX002 (ip), vehicle: saline with Tween-80): 93 % of control; T/C (endpoint: mean survival time, dose: 200.0 mg/kg/injection, schedule: Q04DX002 (ip), vehicle: saline with Tween-80): 93 % of control

**Q.** For `O=[N+]([O-])c1ccc(S(=O)(=O)O)c([N+](=O)[O-])c1.[Ag]`, which T/C (endpoint: mean survival time, dose: 3.12 mg/kg/injection, schedule: Q01DX009 (ip), vehicle: DMSO) is on record?
**A.** 95 % of control

**Q.** And the T/C (endpoint: mean survival time, dose: 6.25 mg/kg/injection, schedule: Q01DX009 (ip), vehicle: DMSO)?
**A.** 97 % of control

**Q.** And the T/C (endpoint: mean survival time, dose: 12.5 mg/kg/injection, schedule: Q01DX009 (ip), vehicle: DMSO)?
**A.** 95 % of control

**Q.** And the T/C (endpoint: mean survival time, dose: 12.5 mg/kg/injection, schedule: Q01DX009 (ip), vehicle: other)?
**A.** 93 % of control

**Q.** What about the T/C (endpoint: mean survival time, dose: 12.5 mg/kg/injection, schedule: Q04DX003 (ip), vehicle: other) of the same molecule?
**A.** 104 % of control

**Q.** What about the T/C (endpoint: mean survival time, dose: 25.0 mg/kg/injection, schedule: Q04DX003 (ip), vehicle: other) of the same molecule?
**A.** 98 % of control

**Q.** And the T/C (endpoint: mean survival time, dose: 50.0 mg/kg/injection, schedule: Q04DX003 (ip), vehicle: other)?
**A.** 103 % of control

**Q.** Which results are given for `CN(CC(=O)OCc1ccccc1)C(=O)CNC(=O)OCc1ccccc1` (Cbz-Gly-[Sar]-OBn)?
**A.** T/C [1]: 95 % of control; T/C [2]: 98 % of control; T/C [3]: 98 % of control
